From patent US20160067211A1, “PHARMACEUTICAL COMPOSITION” (Eberhard Karls Universitaet Tuebingen Medizinische Fakultaet, priority 2013, published 2016)

Experiments:
[1] = test system: primary human fibroblasts (FF868); assay: MUH proliferation assay, fibroblasts; format: cell-based; conditions: 6-PN, 8-PN 0.1 μM to 100 μM; TSA, SAHA 100 μM
Description: FIG. 5: real time cell monitoring of BLM and SK-MEL-28 melanoma cells treated with 6-PN and 8-PN. (A) BML and SK-MEL-28 cells were treated 24 hours after seeding with different concentrations of 6-PN and 8-PN (20 μM, 50 μM and 100 μM) over a 104 hour time period. The cellular impedance was measured over the entire observation time using the xCELLigence™ SP system and is depicted by the cell index (CI). All CI-values were normalized shortly before the treatment started. […] As a positive control, Triton X-100 0.1% was used to induce cell death. Shown are the mean±SD of three independent experiments, each performed in triplicates (B, C). […] Shown are the mean±SD; the experiments were performed in quadruplicates. (D) The MUH proliferation assay was repeated unter the same treatment conditions on primary human fibroblasts (FF868) and melanocytes (HEM1).
The cells were seeded in triplicates in 96-well plates at a density of 2,500 cells per well in 50 μl medium (5×10^4 cells per milliliter). After 24 hours, the medium was replaced by medium containing 6-PN, 8-PN (dissolved in DMSO), TSA (dissolved in EtOH) or SAHA (dissolved in DMSO) at the concentrations to be tested with or without the addition of the necrosis inhibitor IM-54 at 5 μM (Calbiochem, Darmstadt, Germany). Cells treated with culture medium without or with DMSO served as controls. The assay was started following an incubation of 24 hours. […] Plates were incubated at 37° C. for 1 hour and measured in a Fluoroskan II (Lab Systems, Helsinki, Finland) with a […]. The intensity of fluorescence indicates the number of viable cells in the wells.
Next it was asked whether the PNs also influence the proliferation of benign cells. To this end, human fibroblasts (FF) and foreskin melanocytes (HEM1) were treated with the same concentrations of 6-PN and 8-PN, and proliferation was assessed using the proliferation assay as described above.

[2] = test system: MCF-7 breast cancer cells; assay: MUH proliferation assay, MCF-7; format: cell-based; conditions: MCF-7, rising concentrations 0.1 μM to 100 μM, 48 hours
Description: FIG. 6: 6-PN and 8-PN inhibit the growth of MCF-7 and HT-29. (A, B) MUH proliferation assay of HT-29 colon cancer cells and MCF-7 breast cancel cells treated with increasing concentrations of 6-PN and 8-PN (0.1 μM to 100 μM) for 48 hours. Shown are the mean±S.A.; the experiments were performed in quadruplicates.
The cells were seeded in triplicates in 96-well plates at a density of 2,500 cells per well in 50 μl medium (5×10^4 cells per milliliter). After 24 hours, the medium was replaced by medium containing 6-PN, 8-PN (dissolved in DMSO), TSA (dissolved in EtOH) or SAHA (dissolved in DMSO) at the concentrations to be tested with or without the addition of the necrosis inhibitor IM-54 at 5 μM (Calbiochem, Darmstadt, Germany). Cells treated with culture medium without or with DMSO served as controls. The assay was started following an incubation of 24 hours. The medium was discarded, each well was washed two times with PBS (without Ca^++ and Mg^++) and 100 μl of a solution containing […] of 4-methyl umbellipheryl heptanoate per ml PBS was added. Plates were incubated at 37° C. for 1 hour and measured in a Fluoroskan II (Lab Systems, Helsinki, Finland) with a […]. The intensity of fluorescence indicates the number of viable cells in the wells. […]

BLM melanoma cells = assay: FACS cell cycle analysis (PI), BLM; format: cell-based, human; conditions: 100 μM, 48 hours
Description: (§1) (A) Cell cycle FACS analyses of PI stained BLM and SK-MEL-28 melanoma cells. 100 μM of 8-PN-induced a G2 arrest in both cells. (B) FACS analyses of BLM and SK-MEL-28 melanoma cells treated with 100 μM 6-PN or 8-PN and stained for annexin V/PI; staurosporin was used as control for apoptosis induction and DMSO as vehicle control. […] (C) BLM and SK-MEL-28 melanoma cells were treated with 100 μM of PNs; TSA, SAHA and EMSO were used as controls.
To further analyze the possibility of apoptosis induction, an extensive apoptosis assay was performed on SK-MEL-28 melanoma cells 4 hours after treatment with 100 μM 6-PN or 8-PN (FIG. 9). […] This was verified by FACS cell cycle analyses to screen for a possible increase of the sub-G1 fraction of cells (apoptotic cells) or for the induction of a G2 arrest (inhibition of proliferation). […] To further differentiate between the induction of apoptosis and/or necrosis an PI/Annexin V staining of SK-MEL-28 and BLM cells was performed 4 hours and 24 hours after the treatment with 6-PN or 8-PN; 10 μM staurosporin (6 hours treatment) was used as positive control for the induction of apoptosis; DMSO treatment was used as vehicle control. The cells were then analyzed by FACS.

[3] = test system: LC3 in BLM melanoma cells; assay: Western blot LC3 (autophagy), BLM; format: cell-based, human; conditions: 100 μM, after 12-24 hours
Description: as §1
The following antibodies were used: Anti-Vinculin and Anti-Actin (1:5000, Sigma-Aldrich), Anti-Acetyl-Histon H3 (1:5000, Millipore, Billerica, USA), Anti-Caspase-3 (1:1000), Anti-AKT, Anti-pAKT, Anti-ERK, Anti-pERK, […], Anti-p70S6 Kinase, and Anti-pS6 protein (1:1000), all from Cell Signaling, Frankfurt, Germany), Anti-LC3 (1:5000, Sigma-Aldrich).
Since it has been speculated that the formation of intracytoplasmic vacuoles in pancreatic or breast cancer cells by 6-PN and 8-PN observed in pervious studies might represent an induction of autophagy, this issue was further investigated on a molecular level. BLM and SK-MEL-28 melanoma cells were treated with 100 μM of 6-PN, 8-PN, SAHA or TSA (and with DMSO as control), and the treated cells were lysed for protein extraction after 1 hour, 2 hours, 4 hours, 12 hours and 24 hours. […]

CC(C)=CCc1c(O)cc(O)c2c1OC(c1ccc(O)cc1)CC2=O (centres unmarked) [8-PN, 5,7-Dihydroxy-2-(4-hydroxy-phenyl)-8-(3-methyl-but-2-enyl)-chroman-4-one]
fibroblast proliferation [1]: hardly affected
cell proliferation [2]: severe reduction
sub-G1 fraction (apoptotic cells) (BLM melanoma cells): remained unaffected
cells in the G2 phase (BLM melanoma cells; DMSO control 30.4%): 99.6%
shift from LC3-I to LC3-II (autophagy) [3]: clearly induced the shift
